The structures appear in SMILES notation. Where only a bound is given, the exact number is not on record here.

As a reminder, the melting point is the temperature, or range, at which the solid turns liquid. Molecule `COc1ccccc1N1CCN(CCCCCC(=O)N2Cc3ccccc3C2)CC1` registered a melting point of 100 °C.
`O=C1CCC(c2ccccc2)(N2CCOCC2)CC1` displayed a melting point of 116 to 119 °C.
Molecule `C=CC(=O)OCc1c2ccccc2cc2ccccc12` came in with a melting point of 120 to 125 °C.
As to `CN(c1cccc2cc(C3=NCC(C)(C(N)=O)S3)[nH]c12)S(=O)(=O)c1cccs1` (centres undefined), the melting point was in the range of 248 to 249 °C.
For `O=C1Cc2cc(Cl)cc(C(=O)c3ccc(F)cc3)c2N1`, the melting point lay within 222 to 225 °C.
The molecule `Cn1c(Cl)cnc1C(OC(=O)OC(C)(C)C)c1cc(F)ccc1F` (centres undefined) had a melting point of 125 to 126 °C.
Next, `O=C(Nc1nc2ccc(OCc3c(Cl)cccc3Cl)cc2s1)C1CC1`: 178 °C; `CC(C)(C)OC(=O)N1CCC(CNc2ccccn2)CC1`: 126 to 130 °C.
With `C=CCOc1ccc(OC)c2ccccc12`, the melting point was in the range of 30.5 to 32 °C.
With `COC(C)(CCCCCC(C)(C)O)c1cccc(C=Cc2cc(O)cc(O)c2)c1` (centres undefined), the melting point fell in the range of 65 to 75 °C.
Next, `O=C(CCl)N1CC(c2ccc(Cl)cc2)Sc2ccccc21` (centres undefined): 94 to 95 °C.
The molecule `O=C(NC(c1ccccc1)c1cc2ccncc2[nH]1)c1ccccn1` (centres undefined) showed a melting point of 102 to 110 °C.
With `Cc1ccc(C2CN(c3cc4nc5c(cc4cc3F)c(=O)c(C(=O)O)cn5C)CCN2)cc1C` (racemic) the figure was 276 °C.
`O=C(Nc1cccnn1)N1CCN(c2ccnc(-c3ccc(F)cc3F)n2)CC1`: the melting point fell in the range of 200 to 201 °C.
Consider `CCOC(=O)c1ccc(-c2cc(C(=O)OCC)c(N)[nH]2)cc1`, for which the melting point was in the range of 150 to 151 °C.
With `CC[C@H](C)N1CC(C)(C)[C@@H](Oc2ccc(C#N)c(C(F)(F)F)c2)C1=O`, the melting point was in the range of 101 to 102 °C.
With `Nc1cc(C(c2ccc([N+](=O)[O-])c(N)c2)(C(F)(F)F)C(F)(F)F)ccc1[N+](=O)[O-]`, the melting point fell in the range of 257 to 259 °C.
`Cc1ccc(-c2ccc(C(=O)Nc3cc4ncc(CN5CCCC5)cc4cc3F)cc2)cc1` displayed a melting point of 202 to 204 °C.
For `COc1cc(OC)cc(N2CCN(C(=S)Nc3nc4ccccc4nc3OC)CC2)c1`, the melting point lay in the range of 141 to 143 °C.
`CC1=C(C(=O)OC(C)(C)C)C(c2ccccc2Cl)C(C(=O)OC(C)(C)C)=C(C)N1`: the melting point was in the range of 194 to 196 °C.
Regarding `Fc1ccc(Cc2ccccc2N2CCN(c3ccncc3)CC2)cc1`, the melting point was 110 to 111 °C.
Next, `COc1ccc2ccc(N)cc2c1`: 157 °C; `Cc1nc2ccccn2c1Cc1ccc(C(=O)O)cc1`: 217 °C.
Consider `Ic1cnc(N2CCNCC2)nc1`, for which the melting point fell in the range of 39 to 40 °C.
Molecule `COc1cc2ccc(CCOS(C)(=O)=O)cc2cc1OC` yielded a melting point of 112 to 113 °C.
The molecule `CCNC(=O)CC1CCN(Cc2cnc3cc(NC(=O)c4ccc(-c5ccc(Cl)cc5)cc4)ccc3c2)CC1` registered a melting point of 250 °C.
In turn, `CC(C)(C)C(NCCSC12CC3CC(CC(C3)C1)C2)C(=O)O` (centres undefined) returned a melting point of 220 to 230 °C.
With `CC(C)Cc1ccc(C2(C)Oc3ccc(C(=O)O)cc3O2)cc1` (single isomer, unassigned; (-)), the melting point is 120 to 122 °C.
For `C#CCN1CCC=C(c2ccc(C(C)(C)CCCCCC)cc2O)C1`, the melting point lay in the range of 116 to 117 °C.
Take `COC(=O)Nc1nc2cc(C(c3ccc(F)cc3)n3ccnc3C)ccc2[nH]1` (centres undefined): the melting point is > 300 °C.
In turn, `COc1cc2c(cc1C(F)(F)F)N(C(=O)Nc1cncc(-c3c(F)cccc3F)c1)CC2` showed a melting point of 217 to 219 °C.
`CCOC(=O)Cc1c(C)c2ccc(O)cc2oc1=O`: the melting point fell in the range of 167 to 168 °C.
With `Clc1ccc(-c2ccnc(CN3CCC(c4ccc(Cl)cc4)CC3)c2)cc1` the figure was 89 to 91 °C; with `O=C(O)c1cn(CCCc2ccccc2)c2cc(C3CC3)nn2c1=O`, 95 to 100 °C.
On to `N#CCc1ccc(-c2nc3ccccc3o2)cc1-c1cccc(C#N)c1`, for which the melting point lay within 175 to 176 °C.
Consider `N#Cc1ccc2cc(CCCCc3cc4ccc(C#N)cc4o3)oc2c1`, for which the melting point was 215 to 217 °C.
`O=C(O)CC(CC(=O)O)c1ccc(F)cc1`: the melting point lay in the range of 145 to 147 °C.
Molecule `O=C1CCCc2nc3ccccc3c(NCc3ccc(Cl)cc3)c21` gave a melting point of 162 to 164 °C.
Turning to `CC(C)(C)c1nnc(-c2ccccn2)[nH]c1=O`, the melting point lay within 114 to 115 °C.
In the case of `O=c1c2cc(F)c(F)cc2n(-c2ccc(F)cc2)c(=O)n1OCc1ccccc1`, the melting point is 201 to 202 °C.
Next, `N#Cc1ccc(C2=NNC(=O)C3CC23)cc1` (centres undefined): 265 to 266 °C; `Nc1nc2c(c(N3CCN(Cc4ccccc4)CC3)n1)SCCC2`: 124 to 127 °C.
Next, `Nc1cc(C(F)(F)C(F)(F)OC(F)(F)C(F)(F)OC(F)(F)C(F)(F)c2ccc(O)c(N)c2)ccc1O`: 150 to 152 °C.
In turn, `Cc1c(Cc2cccc(C(F)(F)F)c2)oc2c(-c3cccc(C(=O)NCCS(C)(=O)=O)c3)cccc12` registered a melting point of 162 to 163 °C.
Next, `O=C(O)CCC(O)c1ccc(-c2ccccc2F)cc1` (centres undefined): 174 to 175 °C.
Consider `Cc1c(NC(=O)C(C)(C)C)cccc1C(F)(F)F`, for which the melting point worked out at 122 °C.
Next, `O=S(=O)(CCl)c1ccc(-n2cnnn2)cc1`: 168 to 172 °C; `N#Cc1cnn2c(C(F)(F)F)cc(-c3ccncc3)nc12`: 233 °C.
Molecule `CC(C)(C)n1nc(Nc2ccccc2)c(C(N)=O)c1N` yielded a melting point of 225 to 227 °C.
For `CC(C)(C)c1ccc(C(=O)Nc2cn3nc(NC4CC4)ccc3n2)cc1`, the melting point is 274 to 275 °C.
`CCOC(=O)c1ccc(C(F)(F)F)c(O)n1` had a melting point of 141 to 142 °C.
With `CCOC(=O)c1cnc(-c2cc3cccc(N(C)S(=O)(=O)c4cccs4)c3n2COC)s1` the figure was 142 to 143 °C.
`CS(=O)(=O)c1ccc(C(CC2CCCC2)C(=O)Nc2cnc(CC#N)cn2)cc1Cl` (centres undefined) had a melting point of 79 to 82 °C.
Regarding `C=CCOn1cnc2c(Cl)nc(N)nc21`, the melting point is 137 to 139 °C.
Next, `Nc1cc(=O)n(Cc2cccc(Br)c2)[nH]1`: 160 °C; `COC(=O)C(CNC(=O)C1CC1)c1cccc2ccccc12` (centres undefined): 140 to 142 °C; `CN(CCCCCCNC(=O)NCCSCc1csc(NC(=N)N)n1)CCN(Cc1ccc(F)cc1)c1ccccn1`: 95 °C.
Regarding `C=C[C@H]1CN2CC[C@H]1C[C@H]2[C@H](OC(=O)c1ccc(OCCCCCC)cc1)c1ccnc2ccccc12`, the melting point came out at 70 °C.
Next, `CC(=O)Nc1ccc([N+](=O)[O-])c(Cl)c1`: 134 to 136 °C; `CCOC(=O)c1ccnn1-c1c(Cl)cccc1Cl`: 51 to 53 °C.
Turning to `Cc1nc(C)n2c1CN=C(c1ccccc1Cl)c1cc(Cl)ccc1-2`, the melting point lay within 175 to 177 °C.
For `CCN1C(=O)CC(C(=O)O)C1c1ccccc1` (centres undefined), the melting point was 151 to 156 °C.
As to `COc1ccc(N(C(=O)CN2C(=O)C(Cc3n[nH]c4c3CCCC4)C(=O)N(c3ccccc3)c3ccccc32)C(C)C)cc1` (centres undefined), the melting point fell in the range of 170 to 173 °C.
Next, `ClCCCOc1ccc(-c2nc3ccccc3s2)cc1`: 141 to 143 °C; `CN1C(=O)C(c2cccc(Br)c2)(C2CCN(C(=O)c3ccccc3)CC2)N=C1N` (centres undefined): > 250 °C.
With `CC(C)(C)OC(=O)C(C#N)C(=O)c1cc(F)c(F)c(F)c1F` (centres undefined) the figure was 90 to 92 °C; with `NCCCC(F)(F)C(F)(F)C(F)(F)C(F)(F)C(F)(F)C(F)(F)C(F)(F)C(F)(F)C(F)(F)C(F)(F)F`, 53 to 55 °C; with `Nc1ncc2cc(-c3c(Cl)cccc3Br)c(N)nc2n1`, 264 to 280 °C.
Next, `CC(C(N)=S)(c1ccccc1)c1ccccc1`: 150 to 152 °C; `O=C1CCCc2nc(-c3ccccc3)ccc21`: 128 to 130 °C; `CC(C)CCCC(C)CCCC(C)CCOc1ccc(C(=O)O)o1` (centres undefined): 70 to 73 °C.
In turn, `CNc1cc(CC(C#N)=CNc2ccccc2)cc(NC)c1Cl` gave a melting point of 142 to 147 °C.
Molecule `COCc1cnn(-c2c(Cl)cc(C(F)(F)F)cc2Cl)n1` gave a melting point of 32 to 33 °C.
In turn, `CCOc1cc2cc(CO)c(CO)c(-c3ccnc(Cl)c3)c2cc1OCC` came in with a melting point of 148 to 150 °C.
In turn, `O=c1cc(-c2ccc(O)nc2)oc2ccccc12` had a melting point of 296 to 297 °C.
In the case of `CCOC(=O)c1c(Cn2cncn2)nc2cc(OC)c(OC)cc2c1-c1ccc(O)c(OC)c1`, the melting point fell in the range of 176 to 178 °C.
`Cc1ccc(S(=O)(=O)OCCNC(=O)OC(C)(C)C)cc1` registered a melting point of 64 to 66 °C.
In turn, `CCOc1ccc(S(=O)(=O)N2CCNCC2)cc1-c1nc2c(C)cccc2c(=O)[nH]1` had a melting point of 163 to 165 °C.
Regarding `CCCN(CCC)C(=O)N1CCc2ccc(S(=O)(=O)NC(=O)NC3CCCCC3)cc2CC1`, the melting point lay within 179 to 180 °C.
Regarding `O=C(CCCCC(=O)NC1CCc2ccccc21)NC1CCc2ccccc21` (centres undefined), the melting point was found to be 227 °C.
Molecule `O=c1ccsn1Cc1ccc(Cl)cc1` gave a melting point of 88 to 90 °C.
The molecule `COc1cc(NCCCCCCN2C(=O)c3ccccc3C2=O)c2nccc(C)c2c1` had a melting point of 84 to 85 °C.
For `CC(C)CC(=O)Nc1cccc(-c2ccnc3c(-c4cccc(-c5ccccc5)c4)cnn23)c1`, the melting point lay in the range of 182 to 185 °C.
Molecule `Nc1cc(NC(=O)CCCCl)c(Cl)cc1Cl` yielded a melting point of 125 to 128 °C.
With `CCC(=O)C(CCCCCCOc1ccc2c(c1)OCO2)C(=O)CC`, the melting point lay within 45 to 46 °C.
With `CC(C)(C)OC(=O)CN1CC(c2cccc3ccccc23)SCC(N2C(=O)c3ccccc3C2=O)C1=O` (centres undefined) the figure was 211 to 213 °C.
Molecule `CN1CCN(c2cc(F)cc3c(=O)cc(C(=O)Nc4ccc(N5CCN(C(=O)OC(C)(C)C)CC5)cc4)oc23)CC1` returned a melting point of 219 to 220 °C.
`COC1=C(OC)C(=O)C(CN2CCOCC2)=C(C)C1=O`: the melting point was 60 to 62 °C.
The molecule `Nc1nc(O)c2ncn(C=C3CC3CO)c2n1` (centres undefined) yielded a melting point of 218 to 221 °C.
